19 molecules from patent US9850258B2, “Substituted tetrahydrocarbazole and carbazole carboxamide compounds” (BRISTOL-MYERS SQUIBB COMPANY, priority 2013, dated 2017) can be followed below.

Molecules are shown by their SMILES. Like-named read-outs stand apart in the source and are kept apart here.

One test deals with Jak2 tyrosine kinase (Homo sapiens (Human), UniProt O60674). Kind of test: Jak2 Tyrosine Kinase Assay. The format is biochemical. The conditions noted are these: for IC50: Jak2 tyrosine kinase, ATP 30 μM.
The test system of test [1] is CD69 expression on B cells in human whole blood. Nature of the test: Whole Blood Assay of BCR-Stimulated CD69 Expression on B Cells. It counts as cell-based.
The next test addresses human recombinant Btk (Homo sapiens (Human), UniProt Q06187). Nature of the test: Human Recombinant Btk Enzyme Assay. It counts as biochemical.

As a reminder, the IC50 is the concentration at which inhibition is half-maximal.

Sequence of human recombinant Btk (Q06187 whole entry): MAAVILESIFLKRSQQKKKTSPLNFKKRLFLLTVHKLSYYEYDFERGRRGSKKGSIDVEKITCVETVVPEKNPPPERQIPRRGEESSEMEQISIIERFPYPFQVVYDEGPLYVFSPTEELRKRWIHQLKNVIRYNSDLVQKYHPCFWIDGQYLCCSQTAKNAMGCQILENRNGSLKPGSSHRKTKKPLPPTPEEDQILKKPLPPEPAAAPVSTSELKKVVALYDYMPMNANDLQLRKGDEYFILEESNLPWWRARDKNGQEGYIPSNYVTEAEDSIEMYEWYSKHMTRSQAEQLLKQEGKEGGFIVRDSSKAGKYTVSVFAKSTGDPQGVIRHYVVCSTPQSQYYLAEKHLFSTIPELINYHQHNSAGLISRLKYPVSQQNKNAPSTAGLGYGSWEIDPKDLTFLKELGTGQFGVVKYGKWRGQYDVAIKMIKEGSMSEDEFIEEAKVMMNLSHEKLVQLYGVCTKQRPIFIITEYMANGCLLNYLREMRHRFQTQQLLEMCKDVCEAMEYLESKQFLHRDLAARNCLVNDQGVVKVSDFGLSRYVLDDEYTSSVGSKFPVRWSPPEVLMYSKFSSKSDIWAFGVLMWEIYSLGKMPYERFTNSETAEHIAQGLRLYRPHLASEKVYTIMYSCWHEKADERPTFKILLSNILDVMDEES
Sequence of Jak2 tyrosine kinase (O60674 whole entry): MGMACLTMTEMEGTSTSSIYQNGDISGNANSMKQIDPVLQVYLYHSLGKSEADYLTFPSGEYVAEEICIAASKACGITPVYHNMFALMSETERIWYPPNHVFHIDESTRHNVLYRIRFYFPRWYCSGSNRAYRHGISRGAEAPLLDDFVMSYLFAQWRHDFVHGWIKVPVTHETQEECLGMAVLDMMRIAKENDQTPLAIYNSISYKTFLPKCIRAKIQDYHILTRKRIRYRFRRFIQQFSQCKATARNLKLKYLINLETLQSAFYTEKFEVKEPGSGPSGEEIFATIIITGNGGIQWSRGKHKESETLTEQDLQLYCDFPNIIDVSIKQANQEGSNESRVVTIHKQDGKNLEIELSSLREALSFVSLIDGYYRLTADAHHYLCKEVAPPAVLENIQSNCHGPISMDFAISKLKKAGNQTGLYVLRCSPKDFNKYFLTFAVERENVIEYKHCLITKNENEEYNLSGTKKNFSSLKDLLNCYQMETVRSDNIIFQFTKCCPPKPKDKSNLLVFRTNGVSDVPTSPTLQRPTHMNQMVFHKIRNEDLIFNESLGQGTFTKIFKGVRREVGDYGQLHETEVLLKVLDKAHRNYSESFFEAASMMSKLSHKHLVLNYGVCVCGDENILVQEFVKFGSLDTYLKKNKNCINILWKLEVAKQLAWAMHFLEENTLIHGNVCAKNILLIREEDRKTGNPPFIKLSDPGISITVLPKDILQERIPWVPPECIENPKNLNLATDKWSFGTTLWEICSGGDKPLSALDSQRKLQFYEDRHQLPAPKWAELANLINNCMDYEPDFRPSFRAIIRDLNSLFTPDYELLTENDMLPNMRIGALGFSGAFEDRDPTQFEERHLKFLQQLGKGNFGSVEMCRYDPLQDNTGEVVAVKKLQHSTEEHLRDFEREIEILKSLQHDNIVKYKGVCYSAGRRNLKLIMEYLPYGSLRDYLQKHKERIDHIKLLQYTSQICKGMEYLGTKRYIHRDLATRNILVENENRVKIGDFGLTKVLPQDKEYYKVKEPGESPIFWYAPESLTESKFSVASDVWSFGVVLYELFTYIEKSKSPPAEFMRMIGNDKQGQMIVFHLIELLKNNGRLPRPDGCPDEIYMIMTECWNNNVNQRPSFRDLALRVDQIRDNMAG

With `Cc1c(-c2c(F)cc(C(N)=O)c3[nH]c4cc(C(C)(C)O)ccc4c23)cccc1-n1c(=O)c2cccc(F)c2n(C)c1=O` (atropisomer, axis not shown) [Example 18, 3-Fluoro-4-(3-(S)-(8-fluoro-1-methyl-2,4-dioxo-1,2-dihydroquinazolin-3(4H)-yl)-2-methylphenyl)-7-(2-hydroxypropan-2-yl)-9H-carbazole-1-carboxamide], half-maximal inhibition at Jak2 tyrosine kinase (IC50) required 2.2 µM.
As for `Cc1c(-c2c(F)cc(C(N)=O)c3[nH]c4cc(C(C)(C)O)ccc4c23)cccc1-n1c(=O)c2cccc(F)c2n(C)c1=O` (atropisomer, axis not shown) [Example 19, 3-Fluoro-4-(R)-(3-(S)-(8-fluoro-1-methyl-2,4-dioxo-1,2-dihydroquinazolin-3(4H)-yl)-2-methylphenyl)-7-(2-hydroxypropan-2-yl)-9H-carbazole-1-carboxamide], the values for the IC50 (against Jak2 tyrosine kinase; in test [1]) were 2 µM and 0.091 µM, respectively.
Regarding `Cc1cc(C(N)=O)c2[nH]c3cc(C(C)(C)O)ccc3c2c1-c1cccc(-n2c(=O)c3cccc(F)c3n(C)c2=O)c1C` (atropisomer, axis not shown) [Example 29, 4-(R)-(3-(S)-(8-Fluoro-1-methyl-2,4-dioxo-1,2-dihydroquinazolin-3(4H)-yl)-2-methylphenyl)-7-(2-hydroxypropan-2-yl)-3-methyl-9H-carbazole-1-carboxamide], the IC50 is 0.00066 µM on human recombinant Btk and 0.79 µM against Jak2 tyrosine kinase.
Take `Cc1c(-c2c(Cl)cc(C(N)=O)c3[nH]c4cc(C(C)(C)O)ccc4c23)cccc1-n1c(=O)[nH]c2c(F)cc(F)cc2c1=O` (racemic) [Example 10, 3-Chloro-4-(RS)-(3-(RS)-(6,8-difluoro-2,4-dioxo-1,2-dihydroquinazolin-3(4H)-yl)-2-methylphenyl)-7-(2-hydroxypropan-2-yl)-9H-carbazole-1-carboxamide]: the IC50 on human recombinant Btk was 0.00083 µM; against Jak2 tyrosine kinase, above 2 µM. For the same molecule, at Jak2 tyrosine kinase (selectivity of Btk over Jak2), the “Ratio of Jak2/Btk IC50 values” is recorded as above 2400.
In test [1] (Homo sapiens, B-cell), `Cc1c(-c2c(F)cc(C(N)=O)c3[nH]c4cc(C(C)(C)O)ccc4c23)cccc1-n1c(=O)[nH]c2c(F)cc(F)cc2c1=O` (single isomer, unassigned) [Example 73] came in with an IC50 of 0.021 µM.
Take `Cc1nc(C(N)=O)c2[nH]c3cc(C(C)(C)O)ccc3c2c1-c1cccc(-n2cnc3ccccc3c2=O)c1C` [Comparative Example 76, 7-(2-Hydroxypropan-2-yl)-3-methyl-4-(2-methyl-3-(4-oxoquinazolin-3(4H)-yl)phenyl)-9H-pyrido[3,4-b]indole-1-carboxamide, reference compound]: the “Ratio of Jak2/Btk IC50 values” on Jak2 tyrosine kinase (kinase selectivity of Btk over Jak2, larger value = more selective for Btk) is reported as 29.
On to `Cc1c(-c2c(Cl)cc(C(N)=O)c3[nH]c4cc(C(C)(C)O)ccc4c23)cccc1-n1c(=O)c2ccccc2n(C)c1=O` [Example 3, 3-Chloro-7-(2-hydroxypropan-2-yl)-4-(R)-(2-methyl-3-(1-methyl-2,4-dioxo-1,2-dihydroquinazolin-3(4H)-yl)phenyl)-9H-carbazole-1-carboxamide], for which the IC50 is 0.001 µM on human recombinant Btk and 2 µM on Jak2 tyrosine kinase. Moreover, the “Ratio of Jak2/Btk IC50 values” on Jak2 tyrosine kinase (selectivity of Btk over Jak2) came out at 2000.
On the same counts, the results for `Cc1c(-c2c(Cl)cc(C(N)=O)c3[nH]c4cc(C(C)(C)O)ccc4c23)cccc1-n1c(=O)c2cccc(C)c2n(C)c1=O` [Example 4, 3-Chloro-4-(R)-(3-(1,8-dimethyl-2,4-dioxo-1,2-dihydroquinazolin-3(4H)-yl)-2-methylphenyl)-7-(2-hydroxypropan-2-yl)-9H-carbazole-1-carboxamide] are 0.0013 µM, 0.35 µM and 270.
In the case of `COc1cccc2c(=O)n(-c3cccc(-c4c(Cl)cc(C(N)=O)c5[nH]c6cc(C(C)(C)O)ccc6c45)c3C)c(=O)n(C)c12` [Example 7, 3-Chloro-7-(2-hydroxypropan-2-yl)-4-(R)-(3-(8-methoxy-1-methyl-2,4-dioxo-1,2-dihydroquinazolin-3(4H)-yl)-2-methylphenyl)-9H-carbazole-1-carboxamide], the IC50 on human recombinant Btk is 0.00081 µM; against Jak2 tyrosine kinase, 1.6 µM. The “Ratio of Jak2/Btk IC50 values” on Jak2 tyrosine kinase (selectivity of Btk over Jak2) came to 2000.
On the same counts, the results for `Cc1c(-c2c(Cl)cc(C(N)=O)c3[nH]c4cc(C(C)(C)O)ccc4c23)cccc1-n1c(=O)c2cc(F)ccc2n(C)c1=O` [Example 8, 3-Chloro-4-(R)-(3-(6-fluoro-1-methyl-2,4-dioxo-1,2-dihydroquinazolin-3(4H)-yl)-2-methylphenyl)-7-(2-hydroxypropan-2-yl)-9H-carbazole-1-carboxamide] are 0.00065 µM, above 2 µM and above 3100.
On the same counts, the results for `Cc1c(-c2c(Cl)cc(C(N)=O)c3[nH]c4cc(C(C)(C)O)ccc4c23)cccc1-n1c(=O)c2ccc(F)cc2n(C)c1=O` [Example 9, 3-Chloro-4-(R)-(3-(7-fluoro-1-methyl-2,4-dioxo-1,2-dihydroquinazolin-3(4H)-yl)-2-methylphenyl)-7-(2-hydroxypropan-2-yl)-9H-carbazole-1-carboxamide] are 0.00062 µM, above 2 µM and above 3200.
Regarding `Cc1c(-c2c(F)cc(C(N)=O)c3[nH]c4cc(C(C)(C)O)ccc4c23)cccc1-n1c(=O)c2cccc(F)c2n(C)c1=O` [Example 17, 3-Fluoro-4-(3-(8-fluoro-1-methyl-2,4-dioxo-1,2-dihydroquinazolin-3(4H)-yl)-2-methylphenyl)-7-(2-hydroxypropan-2-yl)-9H-carbazole-1-carboxamide], on Jak2 tyrosine kinase, the IC50 stood at 0.17 µM.
For the molecule `Cc1c(-c2c(F)cc(C(N)=O)c3[nH]c4cc(C(C)(C)O)ccc4c23)cccc1-n1c(=O)[nH]c2c(F)cccc2c1=O` [Example 20, 3-Fluoro-4-(3-(8-fluoro-2,4-dioxo-1,2-dihydroquinazolin-3(4H)-yl)-2-methylphenyl)-7-(2-hydroxypropan-2-yl)-9H-carbazole-1-carboxamide], the IC50 worked out at 0.00046 µM on human recombinant Btk and 1.2 µM at Jak2 tyrosine kinase. For the same molecule, the “Ratio of Jak2/Btk IC50 values” at Jak2 tyrosine kinase (selectivity of Btk over Jak2) is 2600.
With `Cc1c(-c2c(Cl)cc(C(N)=O)c3[nH]c4cc(C(C)(C)O)ccc4c23)cccc1-n1c(=O)ccn(-c2ccc(F)cc2)c1=O` [Example 23, 3-Chloro-4-(3-(3-(4-fluorophenyl)-2,6-dioxo-2,3-dihydropyrimidin-1(6H)-yl)-2-methylphenyl)-7-(2-hydroxypropan-2-yl)-9H-carbazole-1-carboxamide], the figures for the IC50 at human recombinant Btk and against Jak2 tyrosine kinase were 0.00044 µM and 0.44 µM, respectively. Further, the “Ratio of Jak2/Btk IC50 values” at Jak2 tyrosine kinase (selectivity of Btk over Jak2) came out at 1000.
Regarding `Cc1c(-c2c(Cl)cc(C(N)=O)c3[nH]c4cc(C(C)(C)O)ccc4c23)cccc1-n1c(=O)ccn(-c2ccc(F)cc2)c1=O` [Example 24, 3-Chloro-4-(R)-(3-(3-(4-fluorophenyl)-2,6-dioxo-2,3-dihydropyrimidin-(6H)-yl)-2-methylphenyl)-7-(2-hydroxypropan-2-yl)-9H-carbazole-1-carboxamide], the IC50 on human recombinant Btk was 0.00033 µM; against Jak2 tyrosine kinase, 1.8 µM. Also, the “Ratio of Jak2/Btk IC50 values” at Jak2 tyrosine kinase (selectivity of Btk over Jak2) was found to be 5500.
As for `Cn1c(=O)n(-c2cccc(-c3c(Cl)cc(C(N)=O)c4[nH]c5cc(C(C)(C)O)ccc5c34)c2Cl)c(=O)c2ccccc21` [Example 42, 3-Chloro-4-(2-chloro-3-(1-methyl-2,4-dioxo-1,2-dihydroquinazolin-3(4H)-yl)phenyl)-7-(2-hydroxypropan-2-yl)-9H-carbazole-1-carboxamide], the IC50 on human recombinant Btk worked out at 0.002 µM.
As for `Cn1c(=O)n(-c2cccc(-c3c(Cl)cc(C(N)=O)c4[nH]c5cc(C(C)(C)O)ccc5c34)c2Cl)c(=O)c2ccccc21` [Example 43, 3-Chloro-4-(R)-(2-chloro-3-(1-methyl-2,4-dioxo-1,2-dihydroquinazolin-3(4H)-yl)phenyl)-7-(2-hydroxypropan-2-yl)-9H-carbazole-1-carboxamide], the IC50 on human recombinant Btk came to 0.00047 µM.
On the same count and under the same terms, the same measure for `Cn1c(=O)n(-c2cccc(-c3c(Cl)cc(C(N)=O)c4[nH]c5cc(C(C)(C)O)ccc5c34)c2Cl)c(=O)c2cccc(F)c21` [Example 44, 3-Chloro-4-(2-chloro-3-(8-fluoro-1-methyl-2,4-dioxo-1,2-dihydroquinazolin-3(4H)-yl)phenyl)-7-(2-hydroxypropan-2-yl)-9H-carbazole-1-carboxamide]: 0.0047 µM.
As to `CC(C)(O)c1ccc2c(c1)[nH]c1c(C(N)=O)cc(Cl)c(-c3cccc(-n4c(=O)[nH]c5c(F)cccc5c4=O)c3Cl)c12` [Example 47, 3-Chloro-4-(R)-(2-chloro-3-(8-fluoro-2,4-dioxo-1,2-dihydroquinazolin-3(4H)-yl)phenyl)-7-(2-hydroxypropan-2-yl)-9H-carbazole-1-carboxamide], the IC50 is 0.00035 µM on human recombinant Btk and 1.8 µM against Jak2 tyrosine kinase. Further, the “Ratio of Jak2/Btk IC50 values” at Jak2 tyrosine kinase (selectivity of Btk over Jak2) is on record as 5100.
